Patent publication US20120059009A1, “ANTI-TUMOR AGENT CONTAINING TEGAFUR-GIMERACIL-OTERACIL POTASSIUM COMBINATION DRUG AND OXALIPLATIN” (TAIHO PHARMACEUTICAL CO., LTD., priority 2009, published 2012)
Read-outs that look alike come from different tables or passages of the source.

Columns and labels:
[1] = system: human colorectal cancer COL-1; test: Anti-tumor effect (IR) in human colorectal cancer COL-1 xenograft model; assay type: in vivo, male nude mice (BALB/cA-nu); details: in the combination S-1 7 mg/kg, l-OHP 4.2 mg/kg
Protocol: A fragment (about 2 mm diameter) of human colorectal cancer COL-1 was transplanted into the right axilla of each of male nude mice (BALB/cA-nu, 4-week old, purchased from CLEA Japan, Inc.), and the tumor volume ((longer diameter)×(shorter diameter)^2/2) of the mouse was calculated. The mice were allocatedinto groups so that the average tumor volumes of the groups were adjusted to about 220 mm^3 (8 mice/group). Drug administration was started on the next day after the day of grouping (Day 0). […] TSU-68 was orally administered once a day at a dose of 200 or 400 mg/kg/day from Day 1 to Day 28. A group to which no drug was administered was set as a control group. During drug administration, the tumor volume of each mouse was measured every 3 to 4 days, and the relative tumor volume (RTV) and the anti-tumor effect (IR (%)) of each group were calculated by the formulas below. The statistical significance of difference of the anti-tumor effect between drug-administration group and control group was analyzed by the Student's t-test (both sides) using the average RTV value of these groups. A P value of p<0.05 was considered statistically significant. Furthermore, the advantage in anti-tumor effect (augmentation effect) of the S-1/l-OHP/TSU-68 combination group, with respect to each of the control group, the S-1/l-OHP combination group and the TSU-68 single administration group, was statistically analyzed through the IUT test. […] Relative tumor volume (RTV)=(Tumor volume on Day N)/(Tumor volume on Day 1) [F1] Anti-tumor effect (IR(%))=[1−(RTV of drug-administration group)/(RTV of control group)]×100

[2] = system: metastatic colorectal cancer patients; assay type: in vivo, human
Protocol: The safety of the case where metastatic colorectal cancer patients (9 cases) were subjected to l-OHP and S-1 combination therapy with administration of TSU-68 was examined. In this study, one cycle of the treatment was consisted of 21 days. To each patient, l-OHP was intravenously administered at a dose of 130 mg/m^2 (per body surface area) on Day 1, and S-1 was orally administered, twice a day after meal, at a daily dose (in terms of tegafur) of 70 mg/m^2 (per body surface area) from Day 1 to Day 14. The 7 days from Day 15 to Day 21 were placed as a rest period. TSU-68 was orally administered every day, twice a day after meal, at a daily dose of 400 mg to 800 mg.
The above study was carried out in order to determine the recommended dose (RD) of TSU-68 in the case where l-OHP and S-1 combination therapy, whose efficacy to colorectal cancer had been established, may be carried out in combination with administration of TSU-68, without causing adverse side effects.
The safety was evaluated according to NCI-CTCAE (3rd edition, the National Cancer Institute's Common Terminology Criteria for Adverse Events version 3.0).

Structure (SMILES): Cc1[nH]c(/C=C2\C(=O)Nc3ccccc32)c(C)c1CCC(=O)O [TSU-68, 3-[2,4-dimethyl-5-[[(Z)-2,3-dihydro-2-oxo-1H-indol-3-ylidene]methyl]-1H-pyrrol-3-yl]propanoic acid]
- IR (%) Day 15 ([1]; TSU-68 200 mg/kg/day p.o.): 47.5%
- IR (%) Day 15 ([1]; TSU-68 400 mg/kg/day p.o.): 51.4%
- IR (%) Day 22 ([1]; TSU-68 200 mg/kg/day p.o.): 47.8%
- IR (%) Day 22 ([1]; TSU-68 400 mg/kg/day p.o.): 46.3%
- IR (%) Day 29 ([1]; TSU-68 200 mg/kg/day p.o.): 49.2%
- IR (%) Day 29 ([1]; TSU-68 400 mg/kg/day p.o.): 52.8%
- anti-tumor effect, 400 mg group versus 800 mg group ([2]; TSU-68 400 or 800 mg daily with l-OHP and S-1): almost equivalent
- dose-limiting toxicity (DLT) ([2]; human, in vivo, 21 days): dose-limiting toxicity (DLT) including singultus and skin response in the hands and feet (Grade 3) or neutropenia (Grade 2) was observed
- recommended dose (RD) of TSU-68 in the combination therapy ([2]; human, in vivo, 21 days): 400 mg
- dose-limiting toxicity (DLT) ([2]; in vivo): no DLT was observed
